# From ChEMBL document CHEMBL1649144, “Breakpoints for susceptibility testing should not divide wild-type distributions of important target species” (2009)
# Assays:
# Type in all cases: functional
# Nakaseomyces glabratus [1] = test: Antimicrobial activity against Candida glabrata by EUCAST method
# Nakaseomyces glabratus [2] = test: Antimicrobial activity against Candida glabrata SSI-M68190-2007 by EUCAST method
# Candida parapsilosis = test: Antimicrobial activity against Candida parapsilosis ATCC 21019 by EUCAST method; details: Lodderomyces parapsilosis
structure (smiles),measurement,setting,value
OC(Cn1cncn1)(Cn1cncn1)c1ccc(F)cc1F [FLUCONAZOLE],MIC,Nakaseomyces glabratus [1],8 µg/mL
same,MIC,Nakaseomyces glabratus [2],0.5 µg/mL
same,MIC,Candida parapsilosis,0.5 µg/mL
